Test results published in ChEMBL document CHEMBL6096724, “Sulfonium Moieties as Ammonium Bioisosteres: Novel Ligands for the Alpha7 Nicotinic Acetylcholine Receptor” (J Med Chem, 2025).
Active and inactive are the calls of the source. The rule behind the calls is not given here.

Tests used:
[1] = target: T1, Neuronal acetylcholine receptor subunit alpha-7 (Homo sapiens, UniProt P36544); assay: Silent agonist activity at human alpha7 nAChR expressed in acetylcholine-treated xenopus laevis oocytes at 30 uM in presence of PNU-120596 by two electrode voltage-clamp assay; type: cell-based; settings: Oocyte
T1 sequence (P36544 whole entry): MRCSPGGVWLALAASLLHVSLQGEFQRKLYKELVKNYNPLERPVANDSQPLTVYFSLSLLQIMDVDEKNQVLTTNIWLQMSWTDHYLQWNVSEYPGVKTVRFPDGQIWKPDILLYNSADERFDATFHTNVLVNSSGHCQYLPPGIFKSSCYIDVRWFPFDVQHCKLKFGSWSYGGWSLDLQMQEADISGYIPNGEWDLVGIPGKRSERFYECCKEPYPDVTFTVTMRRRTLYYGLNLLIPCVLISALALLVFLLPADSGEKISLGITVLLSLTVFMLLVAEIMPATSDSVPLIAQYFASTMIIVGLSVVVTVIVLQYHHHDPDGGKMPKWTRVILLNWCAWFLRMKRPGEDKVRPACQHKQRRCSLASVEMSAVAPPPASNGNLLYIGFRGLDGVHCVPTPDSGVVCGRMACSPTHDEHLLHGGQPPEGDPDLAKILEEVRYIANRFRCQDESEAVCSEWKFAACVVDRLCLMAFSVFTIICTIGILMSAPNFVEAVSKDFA

[2] = target: T2, Neuronal acetylcholine receptor subunit alpha-9 (Homo sapiens, UniProt Q9UGM1); assay: Antagonist activity at human alpha9 nAChR expressed in xenopus laevis oocytes assessed as inhibition of acetylcholine-induced response by two electrode voltage-clamp assay; type: cell-based, Oocyte
T2 sequence (Q9UGM1 whole entry): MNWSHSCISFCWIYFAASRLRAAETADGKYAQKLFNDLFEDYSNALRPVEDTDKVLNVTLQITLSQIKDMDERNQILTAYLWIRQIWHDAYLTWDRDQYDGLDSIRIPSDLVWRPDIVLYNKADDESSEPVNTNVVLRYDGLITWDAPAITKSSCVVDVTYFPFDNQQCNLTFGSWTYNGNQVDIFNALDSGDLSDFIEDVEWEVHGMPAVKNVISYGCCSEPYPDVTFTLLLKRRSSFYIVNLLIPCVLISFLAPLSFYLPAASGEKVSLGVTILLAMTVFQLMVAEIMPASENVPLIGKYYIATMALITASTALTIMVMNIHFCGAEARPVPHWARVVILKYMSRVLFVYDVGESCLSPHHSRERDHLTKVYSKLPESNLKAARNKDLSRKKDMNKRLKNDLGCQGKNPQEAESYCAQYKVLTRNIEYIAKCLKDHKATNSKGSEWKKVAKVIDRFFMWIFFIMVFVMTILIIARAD

[3] = target: T1, Neuronal acetylcholine receptor subunit alpha-7; assay: Antagonist activity at human alpha7 nAChR expressed in acetylcholine-treated xenopus laevis oocytes at 30 uM by two electrode voltage-clamp assay; type: cell-based; settings: Oocyte, filed as antagonist
[4] = target: T1, Neuronal acetylcholine receptor subunit alpha-7; assay: Antagonist activity at human alpha7 nAChR expressed in xenopus laevis oocytes assessed as inhibition of acetylcholine-induced response by two electrode voltage-clamp assay; type: cell-based, Oocyte
[5] = target: T1, Neuronal acetylcholine receptor subunit alpha-7; assay: Agonist activity at human alpha7 nAChR expressed in xenopus laevis oocytes assessed as activation of acetylcholine-induced response by two electrode voltage-clamp assay; type: cell-based, Oocyte
[6] = target: T1, Neuronal acetylcholine receptor subunit alpha-7; assay: Desensitization of human alpha7 nAChR expressed in acetylcholine-treated xenopus laevis oocytes at 30 uM by two electrode voltage-clamp assay; type: cell-based; settings: Oocyte
[7] = target: T1, Neuronal acetylcholine receptor subunit alpha-7; assay: Desensitization of human alpha7 nAChR expressed in acetylcholine-treated xenopus laevis oocytes at 30 uM pretreated with acetylcholine followed by compound treatment and re-treatment of acetylcholine by two electrode voltage-clamp assay; type: cell-based; settings: Oocyte
[8] = target: T1, Neuronal acetylcholine receptor subunit alpha-7; assay: Agonist activity at human alpha7 nAChR expressed in xenopus laevis oocytes assessed as activation of acetylcholine-induced response by two electrode voltage-clamp assay (reference value: 1); type: cell-based; settings: Oocyte, filed as agonist
[9] = target: T1, Neuronal acetylcholine receptor subunit alpha-7; assay: Desensitization of human alpha7 nAChR expressed in acetylcholine-treated xenopus laevis oocytes at 30 uM pretreated with acetylcholine followed by compound treatment and re-treatment of acetylcholine thrice by two electrode voltage-clamp assay; type: cell-based; settings: Oocyte
Mus musculus [10] = assay: Anti-allodynic effect in C57BL/6J mouse model of CFA-induced chronic inflammatory pain assessed as reduction in mechanical hypersensitivity at 0.3 mg/kg, ip measured after 1 hr; type: functional, organism-based
Mus musculus [11] = assay: Effect on von Frey responses in C57BL/6J mouse model of CFA-induced chronic inflammatory pain at 0.3 to 1 mg/kg, ip measured for 0.5 to 6 hrs; type: functional, organism-based; settings: dose 0.3-1 mg/kg, time 0.5-6 hrs
Mus musculus [12] = assay: Effect on locomotor activity in C57BL/6J mouse model of CFA-induced chronic inflammatory pain at 1 mg/kg, ip measured for 0.5 to 6 hrs; type: functional, organism-based; settings: time 0.5-6 hrs
[13] = target: T1, Neuronal acetylcholine receptor subunit alpha-7; assay: Silent agonist activity at human alpha7 nAChR expressed in acetylcholine-treated xenopus laevis oocytes assessed as potentiated response at 30 uM in presence of PNU-120596 by two electrode voltage-clamp assay; type: cell-based; settings: Oocyte, filed as agonist
Mus musculus [14] = assay: Anti-allodynic effect in C57BL/6J mouse model of CFA-induced chronic inflammatory pain assessed as reduction in mechanical hypersensitivity at 1 mg/kg, ip measured for 1 hr relative to control; type: functional; set-up: scale not given: the % may be the effect or the level left
[15] = target: T1, Neuronal acetylcholine receptor subunit alpha-7; assay: Silent agonist activity at human alpha7 nAChR expressed in acetylcholine-treated xenopus laevis oocytes assessed as relative response at 30 uM by two electrode voltage-clamp assay; type: cell-based; settings: Oocyte, filed as agonist
Mus musculus [16] = assay: Anti-inflammatory activity in C57BL/6J mouse model of CFA-induced chronic inflammatory pain assessed as reduction in paw edema at 1 mg/kg, ip measured for 0.5 to 6 hrs; type: functional, organism-based; settings: time 0.5-6 hrs
Mus musculus [17] = assay: Anti-nociceptive effect in CFA C57BL/6J mouse model with alpha7 nAChR knockout at 1 mg/kg, ip measured after 3 days; type: functional, organism-based; settings: time 3.0 day
Mus musculus [18] = assay: Anti-allodynic effect in C57BL/6J mouse model of CFA-induced chronic inflammatory pain assessed as reduction in mechanical hypersensitivity at 0.3 to 1 mg/kg, ip measured for 6 hrs; type: functional, organism-based; settings: dose 0.3-1 mg/kg
[19] = target: T2, Neuronal acetylcholine receptor subunit alpha-9; assay: Activation of human alpha9 nAChR expressed in xenopus laevis oocytes at 30 uM by two electrode voltage-clamp assay; type: cell-based; settings: Oocyte
[20] = target: T2, Neuronal acetylcholine receptor subunit alpha-9; assay: Silent agonist activity at human alpha9 nAChR expressed in acetylcholine-treated xenopus laevis oocytes at 30 uM by two electrode voltage-clamp assay; type: cell-based; settings: Oocyte, filed as agonist
[21] = target: T2, Neuronal acetylcholine receptor subunit alpha-9; assay: Agonist activity at human alpha9 nAChR expressed in xenopus laevis oocytes assessed as activation of acetylcholine-induced response by two electrode voltage-clamp assay (reference value: 1); type: cell-based; settings: Oocyte, filed as agonist
Mus musculus [22] = assay: Effect on von Frey responses in C57BL/6J mouse model of CFA-induced chronic inflammatory pain at 1 to 3 mg/kg, ip measured for 0.5 to 6 hrs; type: functional, organism-based; settings: dose 1-3 mg/kg, time 0.5-6 hrs
Mus musculus [23] = assay: Anti-allodynic effect in C57BL/6J mouse model of CFA-induced chronic inflammatory pain assessed as reduction in mechanical hypersensitivity at 3 mg/kg, ip measured after 1 hr; type: functional, organism-based
Mus musculus [24] = assay: Effect on locomotor activity in C57BL/6J mouse model of CFA-induced chronic inflammatory pain at 3 mg/kg, ip measured for 0.5 to 6 hrs; type: functional, organism-based; settings: time 0.5-6 hrs
Mus musculus [25] = assay: Anti-inflammatory activity in C57BL/6J mouse model of CFA-induced chronic inflammatory pain assessed as reduction in paw edema at 1 to 3 mg/kg, ip measured for 0.5 to 6 hrs; type: functional, organism-based; settings: dose 1-3 mg/kg, time 0.5-6 hrs
Mus musculus [26] = assay: Anti-allodynic effect in C57BL/6J mouse model of CFA-induced chronic inflammatory pain assessed as reduction in mechanical hypersensitivity at 3 mg/kg, ip measured after 6 hrs; type: functional, organism-based
[27] = target: T2, Neuronal acetylcholine receptor subunit alpha-9; assay: Agonist activity at human alpha9 nAChR expressed in xenopus laevis oocytes assessed as activation of acetylcholine-induced response by two electrode voltage-clamp assay; type: cell-based, Oocyte

C[S+]1CCCN(C(=O)c2ccc(-c3cccc(C(F)(F)F)c3)o2)CC1 (stereo unspecified)
Activity ([1]; filed as agonist): Active; Silent Agonist Activity Observed
IC50 [2]: 7.9 µM

CSCCNC(=O)c1ccc(-c2cccc(C(F)(F)F)c2)o1
Activity [1]: inactive

CC[S+]1CCCN(C(=O)c2ccc(-c3cccc(C(F)(F)F)c3)o2)CC1 (stereo unspecified)
Activity [3]: Active
IC50 [4]: 26.3 µM
IC50 [2]: 4.03 µM

O=C(c1ccc(-c2cccc(C(F)(F)F)c2)o1)N1CCCSCC1
Activity [1]: inactive

C1C[S+]2CCC(CC2)N1
EC50 [5]: 41 µM
Activity [6]: inactive
Activity [7]: inactive
Activity [1]: inactive
max activation [8]: 0.98

C[S+](C)CCCNC(=O)c1ccc(-c2cccc(C(F)(F)F)c2)o1
Activity ([1]; filed as agonist): Active; Silent Agonist Activity Observed

C[S+]1CCN(C(=O)c2ccc(-c3cccc(C(F)(F)F)c3)o2)CC1
EC50 [5]: 2.4 µM
Activity ([6]; filed as agonist): Active; Silent Agonist Activity Observed
Activity [1]: inactive
Activity [9]: inactive
max activation [8]: 0.26

O=C(c1ccc(-c2cccc(C(F)(F)F)c2)o1)N1CC[S+]2CCC1CC2
Activity [3]: Active
IC50 [4]: 5.24 µM

CSCCCNC(=O)c1ccc(-c2cccc(C(F)(F)F)c2)o1
Activity [1]: inactive

CC[S+]1CCN(C(=O)c2ccc(-c3cccc(C(F)(F)F)c3)o2)CC1.O=S(=O)([O-])C(F)(F)F
Activity ([1]; filed as agonist): Active; Silent Agonist Activity Observed
Activity (Mus musculus [10]): Active
Activity (Mus musculus [11]): No effect
Activity (Mus musculus [12]): No effect
Activity [13]: 11.2
Activity (Mus musculus [14]): 100%
Activity [15]: 0.016
Activity (Mus musculus [16]): Active
Activity (Mus musculus [17]): Active
Activity (Mus musculus [18]): inactive

CCSCCNC(=O)c1ccc(-c2cccc(C(F)(F)F)c2)o1
Activity [1]: inactive

O=C(c1ccc(-c2cccc(C(F)(F)F)c2)o1)N1CCN2CCC1CC2
Activity [19]: inactive
Activity [20]: Active; Silent Agonist Activity Observed

O=C(c1ccco1)N1CC[S+]2CCC1CC2
Activity [3]: Active

CC[S+](CC)CCNC(=O)c1ccc(-c2cccc(C(F)(F)F)c2)o1
max activation [21]: 0.18
Activity (Mus musculus [22]): No effect
Activity [3]: Active
IC50 [4]: 2.82 µM
Activity (Mus musculus [23]): Active
Activity (Mus musculus [24]): No effect
Activity (Mus musculus [25]): inactive
Activity (Mus musculus [26]): inactive
EC50 [27]: 2.38 µM

C[S+](C)CCNC(=O)c1ccc(-c2cccc(C(F)(F)F)c2)o1
Activity [1]: inactive

O=C(c1ccc(-c2cccc(C(F)(F)F)c2)o1)N1CCSCC1
Activity [1]: inactive
